The record followed here is patent US20060089302A1, “Hsp70-derived peptides and uses thereof in the diagnosis and treatment of autoimmune diseases” (priority 2002, published 2006).

The test system of experiment [1] is peripheral blood mononuclear cells (PBMC) / T-cells. The experiment is described as follows: T-cell proliferation assay (3H-Thymidine incorporation, stimulation index). It counts as cell-based, human. Particulars: for Number of Type 1 Diabetes subjects responding to the peptide: epitope mapping, seven subjects tested (p1: three of these plus two adult patients), S.I.≥2; for Number of Type 1 Diabetes subjects responding to the peptide / T-cell reactivity to hsp70 peptide (epitope mapping): peptide 5-20 μg/ml; for T-cell reactivity to hsp70 peptide (epitope mapping): seven Type 1 Diabetes patients (P3, P16, P18, P20, P21, P23, P24), immunogenic when at least 3 out of 7 patients had S.I.≥2; for T-cell proliferative response, S.I., Mean ± SD: group mean. For orientation: Dividing cells build labelled thymidine or BrdU into new DNA.

Experiment [2] concerns serum IgG anti-hsp60, anti-hsp70, anti-hsp90, anti-tetanus toxoid. Put plainly: Determination of auto-antibodies (antibody capture ELISA on antigen-coated plates). The following applies: for IgG antibodies to the antigen in serum, Mean ± SD: group mean. It is filed as binding, human. On the procedure: All of the serum samples that were collected were stored in aliquotes at −20° C. and thawed before each assay. Total human IgG anti-hsp60, anti-hsp70, and anti-hsp90, as well as anti-tetanus toxoid proteins were detected by the antibody capture-type enzyme immunoassay ELISA [Maggio, M. T. (1981) Enzyme Immunoassay, CRC Press, Boca Raton, USA]. 96-well micro titer plates (Dynatech) were coated with the protein according to the antibody being tested. Serum samples were distributed at dilutions in the range of 1:50 to 1:70 into the pre-coated wells for the protein detection assay. Thus, any IgG anti-hsp60, anti-hsp70, anti-hsp90, or anti-tetanus toxoid present should be bound by the immobilized peptide or protein. After washing off unbound material, a mouse monoclonal anti-human IgG antibody conjugated to alkaline phosphatase (AP) was added to the wells. After an additional washing step to remove any unbound anti-enzyme reagent, the AP substrate p-nitrophenyl phosphate (pNPP) solution was added. The intensity of the color developed was measured using an Anthos htll ELISA reader at λ=405 nm. The amount of antibody detected was represented as Units of Optical Density at λ=405 nm. Patients and control subjects were assayed in the same experiment.
The InStat 2.01 computer program was used for the statistical analysis. The results obtained from the samples of healthy individuals were used to determine the cutoff for each assay, which was established as the mean plus two standard deviations (SDs). […] The results were presented as the percentage of positive from the total tested group.
Levels of IgG antibodies to hsp60, hsp70, and hsp90 were measured in the sera of 20 Type 1 Diabetes children (P1-P5, P7-P21; Table 3A) and two control groups, 10 normoglycemic children (Table 3B) and 15 healthy adult blood donors (Table 3C). The level of the antibodies was scored as positive when it was greater than the cut-off level (cut-off levels were established based on the mean value of antibody levels from the normoglycemic children plus two standard deviations).

The mark [3] stands for this setting: healthy subjects / healthy blood donors.
Setting [4] is: Type 1 diabetes children (n=20), cut-off = mean of normoglycemic children plus two SD.
Setting [5] is: healthy adult blood donors (n=15).
The mark [6] stands for this setting: pediatric control serum donors / healthy children (n=10).

Values joined by “and” are separate entries in the source; they are usually repeats but may differ in a detail not shown here. Equal entries are not always repeated.

As to “MAKAAAVGIDLGTTYSCVGV (listed as Homo sapiens) [p1, human hsp70 residues 1-20]”, in experiment [1], the “Number of Type 1 Diabetes subjects responding to the peptide” value (shortened to “Number”) was “five” and the “T-cell reactivity to hsp70 peptide (epitope mapping)” value (“T-cell reactivity to hsp70 peptide” below) was “triggered a T-cell response”.
Take “hsp90: recombinant human hsp90 (StressGen, Canada), heat-shock protein”: the “T-cell proliferative response, S.I., Mean ± SD” value in experiment [1] (Healthy subjects) was 1.52±0.7; in experiment [1] (Type 1 Diabetes adult patients), 1.4 ± 0.3; in experiment [1] (Type 1 Diabetes children) it was 1.7±1.2 and 1.7 ± 1.1; in experiment [1] (Type 2 Diabetes patients) it was 1.6±1.4 and 1.6 ± 1.38. Also, the “T-cell response, in words” value in experiment [1] (Type 1 Diabetes adult patients (Table 1D), tested after more than 12 weeks) is reported as “No response”. Moreover, the “Responding subjects (S.I.≥2)” value in experiment [1] (Type 1 Diabetes children) came to 21%; in experiment [1] (Type 2 Diabetes patients), 9%; in experiment [1] (setting [3]), 25%. In addition, the “IgG antibodies to the antigen in serum, Mean ± SD” value in experiment [2] (Type 1 Diabetes children) was 0.47 ± 0.13 Units of Optical Density at λ=405 nm; in experiment [2] (healthy adult blood donors), 0.46 ± 0.1 Units of Optical Density at λ=405 nm; in experiment [2] (pediatric control serum donors), 0.43 ± 0.1 Units of Optical Density at λ=405 nm. Moreover, the “Positive (antibody level above cut-off)” value is reported as 15% in experiment [2] (setting [4]); 15% in experiment [2] (Type 1 diabetes children (n=20), cut-off = mean of normoglycemic children plus two SD, listed as Hsp90); 6% in experiment [2] (setting [5]); 6.6% in experiment [2] (healthy adult blood donors (n=15), listed as Hsp90); “none” in experiment [2] (setting [6]); 0% in experiment [2] (pediatric control serum donors / healthy children (n=10), listed as Hsp90).
Turning to “LLLLDVAPLSLGLETAGGVM (listed as Homo sapiens) [p27, human hsp70 residues 391-410]”, in experiment [1], the “Number” value is on record as “six out of seven” and the “T-cell reactivity to hsp70 peptide” value is reported as “triggered a T-cell response”.
For the substance “TIDDGIFEVKATAGDTHLGG (listed as Homo sapiens) [p15, human hsp70 residues 210-229]”, the “T-cell reactivity to hsp70 peptide” value in experiment [1] is recorded as “triggered a T-cell response”.
As to “THLGGEDFDNRLVNHFVEEF (listed as Homo sapiens) [p16, human hsp70 residues 225-244]”, in experiment [1], the “T-cell reactivity to hsp70 peptide” value is “triggered a T-cell response”.
The same measure, in the same setting: the entry for “KANKITITNDKGRLSKEEIE (listed as Homo sapiens) [p34, human hsp70 residues 496-515]” is “triggered a T-cell response”; for “KRTLSSSTQASLEIDSLFEG (listed as Homo sapiens) [p19, human hsp70 residues 271-290]” it is “triggered a T-cell response”.
Turning to “KEEIERMVQEAEKYKAEDEV (listed as Homo sapiens) [p35, human hsp70 residues 511-530]”, in experiment [1], the “Number” value is given as “five” and the “T-cell reactivity to hsp70 peptide” value is “triggered a T-cell response”.
As for “hsp70: recombinant human hsp70 (StressGen, Canada), intact heat-shock protein”, the “T-cell proliferative response, S.I., Mean ± SD” value in experiment [1] (Healthy subjects) was 1.4±0.6 and 1.45±0.6 and 1.44 ± 0.6; in experiment [1] (Type 1 Diabetes adult patients) it was 2.6+0.84 and 2.6 ± 0.84; in experiment [1] (Type 2 Diabetes patients), 1.8±1.3 and 1.8 ± 1.26. Moreover, the “Responding subjects (S.I.≥2)” value in experiment [1] (Type 1 Diabetes adult patients, within 12 weeks from diagnosis) was “about 86%”; in experiment [1] (Type 1 Diabetes children) it was 85%; in experiment [1] (Type 2 Diabetes patients), 27%; in experiment [1] (setting [3]), 14% and 13%. Also, the “IgG antibodies to the antigen in serum, Mean ± SD” value in experiment [2] (Type 1 Diabetes children) was 0.5 ± 0.41 Units of Optical Density at λ=405 nm; in experiment [2] (healthy adult blood donors), 0.43 ± 0.1 Units of Optical Density at λ=405 nm; in experiment [2] (pediatric control serum donors), 0.35 ± 0.09 Units of Optical Density at λ=405 nm. For the same substance, the “Positive (antibody level above cut-off)” value in experiment [2] (setting [4]) is 30%; in experiment [2] (Type 1 diabetes children (n=20), cut-off = mean of normoglycemic children plus two SD, listed as Hsp70) it was 30%; in experiment [2] (setting [5]) it was 6%; in experiment [2] (healthy adult blood donors (n=15), listed as Hsp70), 6.6%; in experiment [2] (setting [6]), “none”; in experiment [2] (pediatric control serum donors / healthy children (n=10), listed as Hsp70), 0%.
Regarding “Tetanus Toxoid: recall antigen Tetanus Toxoid (Connaught Lab. Inc, Penn., USA) [reference compound]”, the “T-cell proliferative response, S.I., Mean ± SD” value in experiment [1] (Healthy subjects) worked out at 8.01 ± 9.3; in experiment [1] (Healthy subjects, listed as tetanus toxoid), 9.4±6.4; in experiment [1] (Type 1 Diabetes adult patients), 14.3 ± 22.86; in experiment [1] (Type 1 Diabetes children) it was 17.2±16.1; in experiment [1] (Type 1 Diabetes children, listed as T.T.) it was 17.2 ± 15.9; in experiment [1] (Type 2 Diabetes patients), 4.4. Further, in experiment [1] (Type 2 Diabetes patients, listed as tetanus toxoid), the “T-cell proliferative response, S.I., Mean ± SD” value came to 4.4±2.9. Besides, the “Serum antibodies to control antigen, in words” value in experiment [2] (Type 1 Diabetes and control groups) is recorded as “comparably high”.
For the substance “PTKQTQIFTTYSDNQPGVLI (listed as Homo sapiens) [p29, human hsp70 residues 421-440]”, the “T-cell reactivity to hsp70 peptide” value in experiment [1] was “triggered a T-cell response”.
